From ChEMBL document CHEMBL4649985, “Generation of a Selective Small Molecule Inhibitor of the CBP/p300 Bromodomain for Leukemia Therapy” (Cancer Res, 2015)
“And” between values parts separate entries of the source, which are not always exact repeats. Equal entries are not always repeated.

Assays:
[1] = molecular target: Transcription initiation factor TFIID subunit 1-like (Homo sapiens) (UniProt Q8IZX4); details: Compound concentration 10.0 uM, Protein concentration 2.0 uM
[2] = molecular target: Bromodomain adjacent to zinc finger domain protein 1A (Homo sapiens) (UniProt Q9NRL2); details: Compound concentration 10.0 uM, Protein concentration 2.0 uM
CREB-binding protein [3] = molecular target: T1, CREB-binding protein (Homo sapiens, UniProt Q92793); details: Compound concentration 10.0 uM, Protein concentration 2.0 uM
Target sequence in this assay (Q92793 2-2442 limits assumed): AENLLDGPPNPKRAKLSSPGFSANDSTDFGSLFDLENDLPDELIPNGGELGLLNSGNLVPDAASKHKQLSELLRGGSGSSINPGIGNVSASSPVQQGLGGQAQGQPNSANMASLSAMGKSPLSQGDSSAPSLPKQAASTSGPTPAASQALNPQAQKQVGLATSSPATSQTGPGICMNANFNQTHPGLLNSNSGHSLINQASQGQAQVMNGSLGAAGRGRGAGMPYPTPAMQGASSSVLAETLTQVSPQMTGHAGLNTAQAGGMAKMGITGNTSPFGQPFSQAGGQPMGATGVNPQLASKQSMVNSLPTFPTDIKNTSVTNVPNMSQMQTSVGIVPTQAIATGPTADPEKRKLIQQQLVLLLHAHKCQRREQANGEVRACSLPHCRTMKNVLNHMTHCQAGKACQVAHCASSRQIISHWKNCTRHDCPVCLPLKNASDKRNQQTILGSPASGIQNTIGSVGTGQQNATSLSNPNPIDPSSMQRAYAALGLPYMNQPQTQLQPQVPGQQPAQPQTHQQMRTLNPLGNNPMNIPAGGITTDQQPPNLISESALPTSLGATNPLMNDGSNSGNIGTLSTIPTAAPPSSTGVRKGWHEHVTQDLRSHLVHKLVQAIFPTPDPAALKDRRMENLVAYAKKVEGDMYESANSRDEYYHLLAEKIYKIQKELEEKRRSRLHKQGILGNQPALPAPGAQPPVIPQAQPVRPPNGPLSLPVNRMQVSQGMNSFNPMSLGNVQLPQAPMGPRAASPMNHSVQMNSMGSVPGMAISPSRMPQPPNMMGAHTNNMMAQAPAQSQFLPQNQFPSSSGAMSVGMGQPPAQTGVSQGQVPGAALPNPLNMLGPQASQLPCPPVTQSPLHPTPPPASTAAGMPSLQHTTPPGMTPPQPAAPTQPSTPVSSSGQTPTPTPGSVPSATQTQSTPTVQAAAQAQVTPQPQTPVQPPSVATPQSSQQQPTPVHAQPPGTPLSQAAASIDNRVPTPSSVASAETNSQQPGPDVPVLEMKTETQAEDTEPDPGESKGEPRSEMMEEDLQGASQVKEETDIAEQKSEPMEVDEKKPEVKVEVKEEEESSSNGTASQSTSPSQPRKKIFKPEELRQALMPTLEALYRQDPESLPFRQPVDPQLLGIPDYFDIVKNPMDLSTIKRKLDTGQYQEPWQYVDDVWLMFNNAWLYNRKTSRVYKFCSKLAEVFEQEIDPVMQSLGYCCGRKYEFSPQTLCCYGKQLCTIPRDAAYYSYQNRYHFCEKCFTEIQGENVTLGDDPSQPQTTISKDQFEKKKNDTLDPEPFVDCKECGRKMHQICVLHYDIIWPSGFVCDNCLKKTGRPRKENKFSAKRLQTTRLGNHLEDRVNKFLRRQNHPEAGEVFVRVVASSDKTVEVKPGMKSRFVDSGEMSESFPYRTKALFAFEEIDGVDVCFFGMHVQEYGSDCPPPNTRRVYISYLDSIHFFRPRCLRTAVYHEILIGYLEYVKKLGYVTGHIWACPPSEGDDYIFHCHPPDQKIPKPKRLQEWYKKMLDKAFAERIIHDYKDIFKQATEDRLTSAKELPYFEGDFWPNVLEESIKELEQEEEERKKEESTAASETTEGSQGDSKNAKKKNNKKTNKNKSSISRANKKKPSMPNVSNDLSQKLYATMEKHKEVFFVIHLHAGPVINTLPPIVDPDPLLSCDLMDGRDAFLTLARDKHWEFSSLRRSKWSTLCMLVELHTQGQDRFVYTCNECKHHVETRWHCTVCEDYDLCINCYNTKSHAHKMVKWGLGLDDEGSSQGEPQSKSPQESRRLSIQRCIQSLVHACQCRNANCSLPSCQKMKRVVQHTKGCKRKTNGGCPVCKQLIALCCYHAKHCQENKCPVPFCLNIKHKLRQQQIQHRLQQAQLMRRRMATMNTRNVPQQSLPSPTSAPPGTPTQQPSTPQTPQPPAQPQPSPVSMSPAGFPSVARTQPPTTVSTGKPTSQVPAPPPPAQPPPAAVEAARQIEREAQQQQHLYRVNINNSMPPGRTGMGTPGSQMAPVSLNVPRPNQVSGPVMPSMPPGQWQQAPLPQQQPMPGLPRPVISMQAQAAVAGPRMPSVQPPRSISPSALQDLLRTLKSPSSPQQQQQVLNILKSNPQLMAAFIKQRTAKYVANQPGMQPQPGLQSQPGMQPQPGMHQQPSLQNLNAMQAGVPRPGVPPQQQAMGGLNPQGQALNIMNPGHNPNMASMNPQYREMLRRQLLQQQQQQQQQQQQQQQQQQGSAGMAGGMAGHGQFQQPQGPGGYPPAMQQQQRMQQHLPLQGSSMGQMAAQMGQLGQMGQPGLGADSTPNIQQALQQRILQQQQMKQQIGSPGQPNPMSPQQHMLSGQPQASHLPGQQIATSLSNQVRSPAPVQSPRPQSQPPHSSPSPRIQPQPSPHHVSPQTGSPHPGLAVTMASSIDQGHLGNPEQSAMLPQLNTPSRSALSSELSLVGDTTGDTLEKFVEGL

[4] = molecular target: Nuclear body protein SP140 (Homo sapiens) (UniProt Q13342); details: Compound concentration 10.0 uM, Protein concentration 2.0 uM
[5] = molecular target: Transcription intermediary factor 1-beta (Homo sapiens) (UniProt Q13263); details: Compound concentration 10.0 uM, Protein concentration 2.0 uM
[6] = molecular target: SWI/SNF-related matrix-associated actin-dependent regulator of chromatin subfamily A member 4 (Homo sapiens) (UniProt P51532); details: Compound concentration 10.0 uM, Protein concentration 2.0 uM
[7] = molecular target: Bromodomain-containing protein 2 (Homo sapiens) (UniProt P25440); details: Compound concentration 10.0 uM, Protein concentration 2.0 uM
[8] = molecular target: Bromodomain testis-specific protein (Homo sapiens) (UniProt Q58F21); details: Compound concentration 10.0 uM, Protein concentration 2.0 uM
[9] = molecular target: Protein polybromo-1 (Homo sapiens) (UniProt Q86U86); experiment: Thermal Shift Assay. Domain start/stop: R487-D598; details: Compound concentration 10.0 uM, Protein concentration 2.0 uM
[10] = molecular target: Transcription initiation factor TFIID subunit 1 (Homo sapiens) (UniProt P21675); details: Compound concentration 10.0 uM, Protein concentration 2.0 uM
[11] = molecular target: ATPase family AAA domain-containing protein 2B (Homo sapiens) (UniProt Q9ULI0); details: Compound concentration 10.0 uM, Protein concentration 2.0 uM
[12] = molecular target: Protein polybromo-1 (Homo sapiens) (UniProt Q86U86); details: Compound concentration 10.0 uM, Protein concentration 2.0 uM
[13] = molecular target: Protein polybromo-1 (Homo sapiens) (UniProt Q86U86); experiment: Thermal Shift Assay. Domain start/stop: H23-D159; details: Compound concentration 10.0 uM, Protein concentration 2.0 uM
[14] = molecular target: Nucleosome-remodeling factor subunit BPTF (Homo sapiens) (UniProt Q12830); details: Compound concentration 10.0 uM, Protein concentration 2.0 uM
[15] = molecular target: Bromodomain-containing protein 3 (Homo sapiens) (UniProt Q15059); experiment: Thermal Shift Assay. Domain start/stop: P24-E144; details: Compound concentration 10.0 uM, Protein concentration 2.0 uM
[16] = molecular target: Histone acetyltransferase KAT2B (Homo sapiens) (UniProt Q92831); details: Compound concentration 10.0 uM, Protein concentration 2.0 uM
[17] = molecular target: PH-interacting protein (Homo sapiens) (UniProt Q8WWQ0); details: Compound concentration 10.0 uM, Protein concentration 2.0 uM
[18] = molecular target: Bromodomain adjacent to zinc finger domain protein 2B (Homo sapiens) (UniProt Q9UIF8); details: Compound concentration 10.0 uM, Protein concentration 2.0 uM
[19] = molecular target: Bromodomain-containing protein 3 (Homo sapiens) (UniProt Q15059); details: Compound concentration 10.0 uM, Protein concentration 2.0 uM
[20] = molecular target: Histone acetyltransferase p300 (Homo sapiens) (UniProt Q09472); details: Compound concentration 10.0 uM, Protein concentration 2.0 uM
Peregrin (Homo sapiens) = Peregrin (Homo sapiens) (UniProt P55201); details: Compound concentration 10.0 uM, Protein concentration 2.0 uM
[21] = molecular target: Protein polybromo-1 (Homo sapiens) (UniProt Q86U86); details: Compound concentration 10.0 uM, Protein concentration 2.0 uM; remark: listed apart in the source
[22] = molecular target: Bromodomain-containing protein 2 (Homo sapiens) (UniProt P25440); details: Compound concentration 10.0 uM, Protein concentration 2.0 uM; remark: listed apart in the source
[23] = molecular target: Transcription initiation factor TFIID subunit 1-like (Homo sapiens) (UniProt Q8IZX4); details: Compound concentration 10.0 uM, Protein concentration 2.0 uM; remark: listed apart in the source
[24] = molecular target: Bromodomain-containing protein 1 (Homo sapiens) (UniProt O95696); details: Compound concentration 10.0 uM, Protein concentration 2.0 uM
[25] = molecular target: Protein polybromo-1 (Homo sapiens) (UniProt Q86U86); details: Compound concentration 10.0 uM, Protein concentration 2.0 uM; remark: listed apart in the source
[26] = molecular target: Histone acetyltransferase KAT2A (Homo sapiens) (UniProt Q92830); details: Compound concentration 10.0 uM, Protein concentration 2.0 uM
[27] = molecular target: Chromatin remodeling regulator CECR2 (Homo sapiens) (UniProt Q9BXF3); details: Compound concentration 10.0 uM, Protein concentration 2.0 uM
[28] = molecular target: Bromodomain and WD repeat-containing protein 3 (Homo sapiens) (UniProt Q6RI45); details: Compound concentration 10.0 uM, Protein concentration 2.0 uM
[29] = molecular target: Bromodomain testis-specific protein (Homo sapiens) (UniProt Q58F21); details: Compound concentration 10.0 uM, Protein concentration 2.0 uM; remark: listed apart in the source
CREB-binding protein [30] = molecular target: T1, CREB-binding protein; experiment: Alphascreen assay. Binding to CREBBPA (domain start/stop: R1081-G1197) by alphascreen assay
[31] = molecular target: Tripartite motif-containing protein 66 (Homo sapiens) (UniProt O15016); experiment: Thermal Shift Assay. Domain start/stop: M1091-S1218; details: Compound concentration 10.0 uM, Protein concentration 2.0 uM
[32] = molecular target: ATPase family AAA domain-containing protein 2 (Homo sapiens) (UniProt Q6PL18); details: Compound concentration 10.0 uM, Protein concentration 2.0 uM
[33] = molecular target: Bromodomain and WD repeat-containing protein 1 (Homo sapiens) (UniProt Q9NSI6); details: Compound concentration 10.0 uM, Protein concentration 2.0 uM
[34] = molecular target: Transcription intermediary factor 1-alpha (Homo sapiens) (UniProt O15164); details: Compound concentration 10.0 uM, Protein concentration 2.0 uM
[35] = molecular target: SWI/SNF-related matrix-associated actin-dependent regulator of chromatin subfamily A member 2 (Homo sapiens) (UniProt P51531); details: Compound concentration 10.0 uM, Protein concentration 2.0 uM
[36] = molecular target: Nuclear body protein SP140-like protein (Homo sapiens) (UniProt Q9H930); details: Compound concentration 10.0 uM, Protein concentration 2.0 uM
[37] = molecular target: PH-interacting protein (Homo sapiens) (UniProt Q8WWQ0); details: Compound concentration 50.0 uM, Protein concentration 0.025 uM
[38] = molecular target: Bromodomain adjacent to zinc finger domain protein 2A (Homo sapiens) (UniProt Q9UIF9); details: Compound concentration 10.0 uM, Protein concentration 2.0 uM
[39] = molecular target: Bromodomain-containing protein 9 (Homo sapiens) (UniProt Q9H8M2); details: Compound concentration 10.0 uM, Protein concentration 2.0 uM
[40] = molecular target: Protein polybromo-1 (Homo sapiens) (UniProt Q86U86); details: Compound concentration 10.0 uM, Protein concentration 2.0 uM; remark: listed apart in the source
[41] = molecular target: T2, Bromodomain-containing protein 4 (Homo sapiens, UniProt O60885); experiment: Alphascreen assay. Binding to BRD4A (domain start/stop: N44-E168) by alphascreen assay
[42] = molecular target: T2, Bromodomain-containing protein 4; details: Compound concentration 10.0 uM, Protein concentration 2.0 uM
[43] = molecular target: Transcription initiation factor TFIID subunit 1 (Homo sapiens) (UniProt P21675); details: Compound concentration 10.0 uM, Protein concentration 2.0 uM; remark: listed apart in the source
[44] = molecular target: Bromodomain and PHD finger-containing protein 3 (Homo sapiens) (UniProt Q9ULD4); details: Compound concentration 10.0 uM, Protein concentration 2.0 uM
[45] = molecular target: Histone-lysine N-methyltransferase ASH1L (Homo sapiens) (UniProt Q9NR48); details: Compound concentration 10.0 uM, Protein concentration 2.0 uM

Bromodomain-containing protein 3 (Homo sapiens), sequence (Q15059 2-726 limits assumed): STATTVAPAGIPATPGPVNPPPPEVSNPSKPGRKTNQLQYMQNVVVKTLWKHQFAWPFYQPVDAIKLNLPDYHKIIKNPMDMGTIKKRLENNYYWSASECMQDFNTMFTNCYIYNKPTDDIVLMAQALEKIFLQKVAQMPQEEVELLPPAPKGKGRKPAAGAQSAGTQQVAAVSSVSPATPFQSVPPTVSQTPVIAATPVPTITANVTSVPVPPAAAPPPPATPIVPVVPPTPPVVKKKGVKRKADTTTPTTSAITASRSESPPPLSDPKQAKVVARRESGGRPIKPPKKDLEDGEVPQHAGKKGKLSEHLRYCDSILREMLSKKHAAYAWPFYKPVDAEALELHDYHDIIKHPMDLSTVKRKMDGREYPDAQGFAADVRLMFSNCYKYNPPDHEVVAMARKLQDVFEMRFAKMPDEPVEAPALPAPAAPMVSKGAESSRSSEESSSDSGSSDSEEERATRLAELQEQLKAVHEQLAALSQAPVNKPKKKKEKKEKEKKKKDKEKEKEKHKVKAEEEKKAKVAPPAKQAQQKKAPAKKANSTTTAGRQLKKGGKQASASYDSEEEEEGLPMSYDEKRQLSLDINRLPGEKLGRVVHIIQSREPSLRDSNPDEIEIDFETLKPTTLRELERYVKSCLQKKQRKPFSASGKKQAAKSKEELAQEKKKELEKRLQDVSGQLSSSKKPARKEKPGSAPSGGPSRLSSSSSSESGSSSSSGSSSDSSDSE
Protein polybromo-1 (Homo sapiens), sequence (Q86U86 whole entry): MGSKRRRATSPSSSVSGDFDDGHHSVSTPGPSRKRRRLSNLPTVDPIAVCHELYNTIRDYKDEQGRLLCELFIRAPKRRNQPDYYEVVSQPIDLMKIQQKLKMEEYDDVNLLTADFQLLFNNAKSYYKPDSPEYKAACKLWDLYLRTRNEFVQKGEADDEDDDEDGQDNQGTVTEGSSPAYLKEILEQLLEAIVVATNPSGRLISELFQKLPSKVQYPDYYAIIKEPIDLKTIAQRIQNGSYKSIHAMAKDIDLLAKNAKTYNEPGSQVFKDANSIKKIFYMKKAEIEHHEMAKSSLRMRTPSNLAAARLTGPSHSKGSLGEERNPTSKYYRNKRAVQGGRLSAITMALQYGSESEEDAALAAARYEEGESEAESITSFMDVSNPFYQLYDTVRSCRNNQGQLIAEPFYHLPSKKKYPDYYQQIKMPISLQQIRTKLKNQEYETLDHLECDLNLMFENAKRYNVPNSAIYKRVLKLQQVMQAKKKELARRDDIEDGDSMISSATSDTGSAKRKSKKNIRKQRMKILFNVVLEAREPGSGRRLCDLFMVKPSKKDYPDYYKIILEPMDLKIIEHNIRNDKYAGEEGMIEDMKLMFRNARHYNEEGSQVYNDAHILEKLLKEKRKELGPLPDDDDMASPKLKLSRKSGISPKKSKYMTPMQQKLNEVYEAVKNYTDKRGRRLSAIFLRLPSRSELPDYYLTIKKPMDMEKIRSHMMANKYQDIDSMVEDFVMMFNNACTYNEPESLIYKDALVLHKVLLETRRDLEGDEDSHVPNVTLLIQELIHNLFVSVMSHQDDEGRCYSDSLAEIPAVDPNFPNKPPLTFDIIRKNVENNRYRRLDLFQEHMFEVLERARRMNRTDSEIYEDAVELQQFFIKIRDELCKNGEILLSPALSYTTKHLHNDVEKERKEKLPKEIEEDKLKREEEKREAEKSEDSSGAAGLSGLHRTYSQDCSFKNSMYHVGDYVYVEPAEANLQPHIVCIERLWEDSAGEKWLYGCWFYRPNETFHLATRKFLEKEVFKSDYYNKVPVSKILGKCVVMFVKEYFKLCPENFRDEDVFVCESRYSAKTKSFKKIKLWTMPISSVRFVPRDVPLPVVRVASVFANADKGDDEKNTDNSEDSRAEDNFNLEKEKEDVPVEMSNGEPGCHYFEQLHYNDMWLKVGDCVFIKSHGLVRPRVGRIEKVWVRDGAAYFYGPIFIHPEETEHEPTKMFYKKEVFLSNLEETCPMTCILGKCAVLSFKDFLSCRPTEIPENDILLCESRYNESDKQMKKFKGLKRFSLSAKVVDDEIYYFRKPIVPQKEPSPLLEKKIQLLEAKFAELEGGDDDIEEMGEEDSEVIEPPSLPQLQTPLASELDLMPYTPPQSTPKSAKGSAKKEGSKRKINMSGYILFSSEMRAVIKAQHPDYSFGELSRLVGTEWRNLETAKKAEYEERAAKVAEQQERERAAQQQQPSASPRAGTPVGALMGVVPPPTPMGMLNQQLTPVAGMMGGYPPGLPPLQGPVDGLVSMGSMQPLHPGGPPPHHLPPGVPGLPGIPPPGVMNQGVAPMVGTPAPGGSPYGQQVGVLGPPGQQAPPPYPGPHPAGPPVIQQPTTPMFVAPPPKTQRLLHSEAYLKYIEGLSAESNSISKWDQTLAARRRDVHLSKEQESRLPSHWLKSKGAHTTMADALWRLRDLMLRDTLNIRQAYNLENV

ΔTm [1]: 0.3 °C
ΔTm [2]: 1.83 °C
ΔTm (CREB-binding protein [3]): 6.8 °C and 8.01 °C and 8.5 °C
ΔTm [4]: 0.16 °C
ΔTm [5]: 0.1 °C
ΔTm [6]: 0.56 °C
ΔTm [7]: 1.23 °C
ΔTm [8]: 0.73 °C
ΔTm [9]: 1.11 °C
ΔTm [10]: 0.18 °C
ΔTm [11]: 0.16 °C
ΔTm [12]: 0.53 °C
ΔTm [13]: 1.87 °C
ΔTm [14]: 0.75 °C
ΔTm [15]: 1.35 °C and 2.27 °C
ΔTm [16]: -0.01 °C and 0.36 °C
ΔTm [17]: 1.07 °C
ΔTm [18]: 0.11 °C and 0.34 °C
ΔTm [19]: 1.01 °C and 1.27 °C
ΔTm [20]: 8.99 °C
ΔTm (Peregrin (Homo sapiens)): 0.86 °C
ΔTm [21]: 0.34 °C
ΔTm [22]: 2.1 °C and 1.08 °C
ΔTm [23]: 0.65 °C
ΔTm [24]: 0.86 °C
ΔTm [25]: -0.05 °C
ΔTm [26]: 0.84 °C
ΔTm [27]: 0.59 °C
ΔTm [28]: 1.86 °C
ΔTm [29]: 0.3 °C
IC50 (CREB-binding protein [30]): 0.324 µM
ΔTm [31]: 0.65 °C
ΔTm [32]: 0.94 °C
ΔTm [33]: 0.28 °C
ΔTm [34]: 0.77 °C
ΔTm [35]: 0.19 °C
ΔTm [36]: 1.3 °C
inhibition [37]: 11.6% and 13.1%
ΔTm [38]: 0.84 °C
ΔTm [39]: 0.93 °C
ΔTm [40]: 0.4 °C and 0.01 °C
IC50 [41]: 2.46 µM
ΔTm [42]: 0.77 °C and 0.68 °C
ΔTm [43]: 0.37 °C
ΔTm [44]: 0.92 °C
ΔTm [45]: 0.59 °C
Compound: CCC(=O)N1CCOc2c(cc(-c3ccc(OC)c(OC)c3)cc2OC[C@H]2CCCN(C)C2)C1
